Measurements reported in ChEMBL document CHEMBL5465560, “Selectivity Literature for EUbOPEN Chemogenomic Library” (2024).

Key:
[1] = tested on: Tyrosine-protein kinase ABL1 (Homo sapiens), P00519 [E255K]; details: at 10 µM
[2] = target: T1, Tyrosine-protein kinase ZAP-70 (Homo sapiens) (UniProt P43403); details: at 10 µM
T1 sequence (whole entry): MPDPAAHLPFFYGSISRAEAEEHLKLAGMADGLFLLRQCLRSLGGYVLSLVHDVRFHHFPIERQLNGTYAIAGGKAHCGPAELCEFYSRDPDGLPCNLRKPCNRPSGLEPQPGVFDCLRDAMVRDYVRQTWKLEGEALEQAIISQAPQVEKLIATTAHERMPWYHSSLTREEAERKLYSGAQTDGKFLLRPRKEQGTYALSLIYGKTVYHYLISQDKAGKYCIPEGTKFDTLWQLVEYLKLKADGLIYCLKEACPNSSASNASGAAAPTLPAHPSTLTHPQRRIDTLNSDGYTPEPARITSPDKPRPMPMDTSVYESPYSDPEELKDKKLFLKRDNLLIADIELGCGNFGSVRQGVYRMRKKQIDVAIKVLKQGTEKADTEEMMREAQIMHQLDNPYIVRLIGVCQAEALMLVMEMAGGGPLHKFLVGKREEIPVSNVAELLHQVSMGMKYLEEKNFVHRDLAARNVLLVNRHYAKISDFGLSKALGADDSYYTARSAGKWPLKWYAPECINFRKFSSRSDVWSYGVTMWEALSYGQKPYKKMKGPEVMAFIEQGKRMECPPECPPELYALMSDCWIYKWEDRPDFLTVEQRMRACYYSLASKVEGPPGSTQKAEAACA

[3] = tested on: Epidermal growth factor receptor (Homo sapiens), P00533 [G719C]; experiment: (§1) Selectivity interaction (KinomeScan (DiscoverX)) EUB0001049a EGFR; details: at 1 µM
[4] = tested on: Epidermal growth factor receptor (Homo sapiens), P00533 [L858R,T790M]; experiment: as §1; details: at 1 µM
[5] = tested on: Epidermal growth factor receptor (Homo sapiens), P00533 [UNDEFINED MUTATION]; experiment: as §1; details: at 1 µM
[6] = tested on: Epidermal growth factor receptor (Homo sapiens), P00533 [L861Q]; experiment: as §1; details: at 1 µM
[7] = tested on: Epidermal growth factor receptor (Homo sapiens), P00533 [G719S]; experiment: as §1; details: at 1 µM
[8] = target: Epidermal growth factor receptor (Homo sapiens, UniProt P00533); experiment: as §1; details: at 1 µM
[9] = tested on: Epidermal growth factor receptor (Homo sapiens), P00533 [L858R]; experiment: as §1; details: at 1 µM
[10] = tested on: Epidermal growth factor receptor (Homo sapiens), P00533 [T790M]; experiment: as §1; details: at 1 µM
[11] = target: T2, Mitogen-activated protein kinase 12 (Homo sapiens) (UniProt P53778); experiment: Selectivity interaction (KinomeScan (DiscoverX)) EUB0001049a MAPK12; details: at 1 µM
T2 sequence (whole entry): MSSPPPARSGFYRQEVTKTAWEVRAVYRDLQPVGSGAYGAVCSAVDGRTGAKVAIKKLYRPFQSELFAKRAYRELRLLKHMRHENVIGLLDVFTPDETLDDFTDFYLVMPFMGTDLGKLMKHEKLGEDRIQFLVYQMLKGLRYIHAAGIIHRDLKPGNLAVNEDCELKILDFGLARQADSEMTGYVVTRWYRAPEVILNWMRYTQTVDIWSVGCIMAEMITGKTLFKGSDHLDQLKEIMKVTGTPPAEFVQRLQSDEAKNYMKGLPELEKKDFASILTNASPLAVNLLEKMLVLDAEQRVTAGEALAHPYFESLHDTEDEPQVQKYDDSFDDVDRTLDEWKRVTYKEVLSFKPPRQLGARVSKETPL

[12] = target: Myosin-IIIa (Homo sapiens) (UniProt Q8NEV4); experiment: Selectivity interaction (Ambit KINOMEscan and KiNATiv profiling in Jurkat cells) EUB0000090b MYO3A; format: cell-based; details: at 1 µM
[13] = target: Calcium/calmodulin-dependent protein kinase type 1D (Homo sapiens) (UniProt Q8IU85); experiment: Selectivity interaction (ActivX KiNativ screen (kinase selectivity in THP-1 cell lysates)) EUB0000639a CAMK1D; format: subcellular; details: lysate, at 5 µM
[14] = target: Ribosomal protein S6 kinase alpha-1 (Homo sapiens, UniProt Q15418); experiment: Selectivity interaction (ActivX KiNativ screen (kinase selectivity in THP-1 cell lysates)) EUB0000639a RPS6KA1; format: subcellular; details: lysate, at 0.2 µM
[15] = target: Serine/threonine-protein kinase pim-3 (Homo sapiens) (UniProt Q86V86); experiment: Selectivity interaction (Kinase panel (Z-LYTE Assay)) EUB0001632a PIM3; details: at 10 µM
[16] = target: Mitogen-activated protein kinase kinase kinase 20 (Homo sapiens) (UniProt Q9NYL2); experiment: Selectivity interaction (KinomeScan (DiscoverX)) EUB0000695a MAP3K20; details: at 100 nM
[17] = target: Cyclin-dependent kinase 5 (Homo sapiens, UniProt Q00535); experiment: Selectivity interaction (Kinase panel (enzymatic assay)) EUB0000595a CDK5
Cyclin-dependent kinase 5, sequence (Q00535 whole entry): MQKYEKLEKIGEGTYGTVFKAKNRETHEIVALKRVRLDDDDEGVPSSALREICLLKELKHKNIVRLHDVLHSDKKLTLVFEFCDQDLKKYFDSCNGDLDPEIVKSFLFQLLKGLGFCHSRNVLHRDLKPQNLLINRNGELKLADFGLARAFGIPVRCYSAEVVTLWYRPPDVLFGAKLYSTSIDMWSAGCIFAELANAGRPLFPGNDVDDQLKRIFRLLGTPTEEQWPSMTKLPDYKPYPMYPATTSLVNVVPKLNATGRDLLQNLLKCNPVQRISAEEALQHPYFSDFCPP

[18] = target: Death-associated protein kinase 3 (Homo sapiens) (UniProt O43293); experiment: Selectivity interaction (KinomeScan (DiscoverX)) EUB0000229b DAPK3; details: at 10 µM
[19] = target: Receptor-interacting serine/threonine-protein kinase 2 (Homo sapiens, UniProt O43353); experiment: Selectivity interaction (Competition-binding assay (DiscoverX)) EUB0000229b RIPK2
Receptor-interacting serine/threonine-protein kinase 2, sequence (O43353 whole entry): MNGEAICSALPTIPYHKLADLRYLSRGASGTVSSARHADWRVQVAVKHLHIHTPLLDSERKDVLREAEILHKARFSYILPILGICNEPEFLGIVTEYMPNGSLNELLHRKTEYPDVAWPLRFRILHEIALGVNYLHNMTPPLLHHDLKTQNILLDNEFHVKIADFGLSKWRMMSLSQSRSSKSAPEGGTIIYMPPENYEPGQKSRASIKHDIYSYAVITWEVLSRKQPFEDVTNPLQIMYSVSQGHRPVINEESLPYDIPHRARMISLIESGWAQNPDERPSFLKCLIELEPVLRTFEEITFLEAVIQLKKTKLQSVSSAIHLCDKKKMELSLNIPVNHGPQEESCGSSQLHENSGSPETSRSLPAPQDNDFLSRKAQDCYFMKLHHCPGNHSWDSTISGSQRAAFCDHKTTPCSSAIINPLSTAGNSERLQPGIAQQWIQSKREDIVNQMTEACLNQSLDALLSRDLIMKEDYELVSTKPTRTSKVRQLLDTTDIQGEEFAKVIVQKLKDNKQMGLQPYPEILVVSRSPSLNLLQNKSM

[20] = target: Serine/threonine-protein kinase PAK 6 (Homo sapiens) (UniProt Q9NQU5); experiment: Selectivity interaction (KinomeScan (DiscoverX)) EUB0000229b PAK6; details: at 10 µM
Serine/threonine-protein kinase PAK 6 (Homo sapiens), sequence (Q9NQU5 whole entry, looked up): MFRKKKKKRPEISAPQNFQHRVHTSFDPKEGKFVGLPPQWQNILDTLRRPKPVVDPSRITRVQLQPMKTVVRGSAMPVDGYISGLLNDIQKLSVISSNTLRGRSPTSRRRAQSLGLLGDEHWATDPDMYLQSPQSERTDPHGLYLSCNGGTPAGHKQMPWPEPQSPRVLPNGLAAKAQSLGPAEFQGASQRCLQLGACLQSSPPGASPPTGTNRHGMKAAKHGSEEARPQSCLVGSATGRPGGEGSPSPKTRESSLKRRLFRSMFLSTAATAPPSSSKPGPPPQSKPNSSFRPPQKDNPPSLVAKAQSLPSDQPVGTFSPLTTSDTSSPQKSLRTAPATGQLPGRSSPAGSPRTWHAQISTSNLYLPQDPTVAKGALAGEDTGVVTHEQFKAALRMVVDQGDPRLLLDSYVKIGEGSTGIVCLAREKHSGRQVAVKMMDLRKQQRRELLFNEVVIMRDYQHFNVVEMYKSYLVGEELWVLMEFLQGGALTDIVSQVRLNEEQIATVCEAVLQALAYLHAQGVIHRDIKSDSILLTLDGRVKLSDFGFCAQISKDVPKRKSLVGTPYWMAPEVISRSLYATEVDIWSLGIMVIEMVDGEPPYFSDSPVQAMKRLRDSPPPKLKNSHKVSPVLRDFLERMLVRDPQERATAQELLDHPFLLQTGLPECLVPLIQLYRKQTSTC

[21] = target: Calcium/calmodulin-dependent protein kinase type II subunit beta (Homo sapiens) (UniProt Q13554); experiment: Selectivity interaction (KinomeScan (DiscoverX)) EUB0000229b CAMK2B; details: at 10 µM
[22] = target: Serine/threonine-protein kinase VRK2 (Homo sapiens) (UniProt Q86Y07); experiment: Selectivity interaction (KinomeScan (DiscoverX)) EUB0001079a VRK2; details: at 1 µM
[23] = target: Ephrin type-A receptor 5 (Homo sapiens) (UniProt P54756); experiment: Selectivity interaction (KinomeScan (DiscoverX)) EUB0001079a EPHA5; details: at 1 µM
Ephrin type-A receptor 5 (Homo sapiens), sequence (P54756 whole entry): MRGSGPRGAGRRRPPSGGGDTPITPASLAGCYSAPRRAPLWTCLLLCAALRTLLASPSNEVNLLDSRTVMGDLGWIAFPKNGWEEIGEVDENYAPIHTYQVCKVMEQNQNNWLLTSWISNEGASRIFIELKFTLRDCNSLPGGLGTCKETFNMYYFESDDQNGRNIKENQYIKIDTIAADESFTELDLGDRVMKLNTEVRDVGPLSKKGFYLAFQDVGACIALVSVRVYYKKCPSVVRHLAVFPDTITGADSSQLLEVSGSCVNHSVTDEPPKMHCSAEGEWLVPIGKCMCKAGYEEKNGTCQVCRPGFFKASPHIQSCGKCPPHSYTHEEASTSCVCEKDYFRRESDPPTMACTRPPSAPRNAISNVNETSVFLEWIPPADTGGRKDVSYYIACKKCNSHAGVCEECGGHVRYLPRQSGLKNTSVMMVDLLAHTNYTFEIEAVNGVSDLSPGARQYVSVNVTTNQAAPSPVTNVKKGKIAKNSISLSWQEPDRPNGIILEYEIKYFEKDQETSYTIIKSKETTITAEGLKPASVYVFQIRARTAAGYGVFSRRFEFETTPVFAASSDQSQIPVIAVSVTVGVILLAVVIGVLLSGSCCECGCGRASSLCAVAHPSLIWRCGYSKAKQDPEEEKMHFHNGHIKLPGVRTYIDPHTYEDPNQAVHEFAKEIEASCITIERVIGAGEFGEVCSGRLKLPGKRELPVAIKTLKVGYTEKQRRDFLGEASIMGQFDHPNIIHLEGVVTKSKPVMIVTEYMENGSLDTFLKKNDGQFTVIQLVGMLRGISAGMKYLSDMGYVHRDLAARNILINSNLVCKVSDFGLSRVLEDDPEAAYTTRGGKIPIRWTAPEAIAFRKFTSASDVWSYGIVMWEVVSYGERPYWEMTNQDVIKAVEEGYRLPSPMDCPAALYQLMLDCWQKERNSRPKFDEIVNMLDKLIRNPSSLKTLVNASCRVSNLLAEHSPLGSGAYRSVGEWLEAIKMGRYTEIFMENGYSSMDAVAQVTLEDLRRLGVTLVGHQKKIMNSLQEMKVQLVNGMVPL

[24] = target: Serine/threonine-protein kinase 26 (Homo sapiens, UniProt Q9P289); experiment: Selectivity interaction (KinomeScan (DiscoverX)) EUB0000045b STK26
Serine/threonine-protein kinase 26, sequence (Q9P289 2-416 limits assumed): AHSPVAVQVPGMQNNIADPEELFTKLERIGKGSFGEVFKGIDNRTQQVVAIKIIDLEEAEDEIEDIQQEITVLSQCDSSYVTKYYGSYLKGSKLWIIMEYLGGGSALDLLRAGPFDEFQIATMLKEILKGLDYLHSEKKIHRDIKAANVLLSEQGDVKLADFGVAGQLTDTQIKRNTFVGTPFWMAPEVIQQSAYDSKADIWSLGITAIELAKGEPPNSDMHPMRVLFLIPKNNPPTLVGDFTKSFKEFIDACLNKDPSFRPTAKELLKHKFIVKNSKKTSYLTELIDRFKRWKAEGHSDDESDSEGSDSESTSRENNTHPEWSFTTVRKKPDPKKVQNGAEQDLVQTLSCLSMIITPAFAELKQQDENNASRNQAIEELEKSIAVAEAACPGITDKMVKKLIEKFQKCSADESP

[25] = target: Platelet-derived growth factor receptor beta (Homo sapiens, UniProt P09619); experiment: Selectivity interaction (KinomeScan (DiscoverX)) EUB0000655a PDGFRB; details: at 10 µM
[26] = target: Myosin light chain kinase 2, skeletal/cardiac muscle (Homo sapiens) (UniProt Q9H1R3); experiment: Selectivity interaction (KinomeScan (DiscoverX)) EUB0000655a MYLK2; details: at 10 µM
Myosin light chain kinase 2, skeletal/cardiac muscle (Homo sapiens), sequence (Q9H1R3 whole entry, canonical isoform): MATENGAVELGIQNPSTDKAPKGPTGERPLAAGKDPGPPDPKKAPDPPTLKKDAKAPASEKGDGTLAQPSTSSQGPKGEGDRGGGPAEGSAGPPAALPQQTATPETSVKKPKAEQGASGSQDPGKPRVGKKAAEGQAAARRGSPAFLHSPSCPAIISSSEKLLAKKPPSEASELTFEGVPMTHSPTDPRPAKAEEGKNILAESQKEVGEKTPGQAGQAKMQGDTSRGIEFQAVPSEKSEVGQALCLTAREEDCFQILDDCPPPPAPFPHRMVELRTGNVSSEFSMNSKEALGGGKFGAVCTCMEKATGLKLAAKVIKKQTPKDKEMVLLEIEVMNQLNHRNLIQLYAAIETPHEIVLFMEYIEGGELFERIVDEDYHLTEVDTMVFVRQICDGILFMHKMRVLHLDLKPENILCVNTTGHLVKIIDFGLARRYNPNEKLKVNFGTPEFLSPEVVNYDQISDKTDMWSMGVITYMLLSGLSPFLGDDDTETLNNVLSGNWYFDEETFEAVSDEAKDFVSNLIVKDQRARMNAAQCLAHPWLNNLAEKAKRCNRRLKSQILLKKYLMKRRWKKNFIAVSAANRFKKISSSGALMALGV

[27] = target: Phosphorylase b kinase gamma catalytic chain, skeletal muscle/heart isoform (Homo sapiens) (UniProt Q16816); experiment: Selectivity interaction (KinomeScan (DiscoverX)) EUB0000655a PHKG1; details: at 10 µM
[28] = target: Ephrin type-A receptor 5 (Homo sapiens) (UniProt P54756); experiment: Selectivity interaction (KinomeScan (DiscoverX)) EUB0000618a EPHA5; details: at 10 µM
[29] = target: Cyclin-dependent kinase 16 (Homo sapiens) (UniProt Q00536); experiment: Selectivity interaction (KinomeScan (DiscoverX)) EUB0000666a CDK16; details: at 10 µM

Tyrosine-protein kinase ABL1 (Homo sapiens), P00519 [E255K], sequence (P00519 whole entry E255K): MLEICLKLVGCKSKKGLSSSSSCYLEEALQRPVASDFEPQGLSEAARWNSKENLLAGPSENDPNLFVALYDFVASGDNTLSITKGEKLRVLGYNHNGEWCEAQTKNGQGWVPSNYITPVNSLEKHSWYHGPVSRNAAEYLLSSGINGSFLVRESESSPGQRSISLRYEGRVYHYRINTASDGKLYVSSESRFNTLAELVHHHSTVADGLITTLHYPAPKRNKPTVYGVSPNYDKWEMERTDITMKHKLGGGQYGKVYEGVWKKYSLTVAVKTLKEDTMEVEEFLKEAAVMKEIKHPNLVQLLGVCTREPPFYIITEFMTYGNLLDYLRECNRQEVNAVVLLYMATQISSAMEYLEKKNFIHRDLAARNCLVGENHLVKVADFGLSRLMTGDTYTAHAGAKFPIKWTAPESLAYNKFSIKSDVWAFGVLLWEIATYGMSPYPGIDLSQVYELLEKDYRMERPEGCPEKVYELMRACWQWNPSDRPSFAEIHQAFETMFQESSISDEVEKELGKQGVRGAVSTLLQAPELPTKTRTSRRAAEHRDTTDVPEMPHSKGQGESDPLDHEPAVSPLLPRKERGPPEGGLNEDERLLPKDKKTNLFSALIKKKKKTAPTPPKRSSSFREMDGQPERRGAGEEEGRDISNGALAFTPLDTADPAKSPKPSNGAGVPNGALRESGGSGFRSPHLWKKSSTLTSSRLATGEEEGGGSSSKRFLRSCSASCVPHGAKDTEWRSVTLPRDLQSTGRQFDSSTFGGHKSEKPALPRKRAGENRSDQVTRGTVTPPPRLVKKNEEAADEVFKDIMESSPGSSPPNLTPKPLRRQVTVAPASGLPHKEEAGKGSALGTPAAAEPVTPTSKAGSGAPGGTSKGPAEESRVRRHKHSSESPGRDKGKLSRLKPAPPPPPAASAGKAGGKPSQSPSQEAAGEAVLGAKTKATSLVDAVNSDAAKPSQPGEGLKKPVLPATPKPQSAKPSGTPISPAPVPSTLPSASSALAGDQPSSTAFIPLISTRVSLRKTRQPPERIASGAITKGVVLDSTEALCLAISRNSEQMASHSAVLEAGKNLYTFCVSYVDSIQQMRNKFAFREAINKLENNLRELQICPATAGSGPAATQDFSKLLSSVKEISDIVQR

Structure (SMILES): Cc1cc([C@@H](C)Nc2ccccc2C(=O)O)c2nc(N3CCOCC3)cc(=O)n2c1 [AZD-6482]
- % of control [1]: 94%
- % of control [2]: 100%

Structure (SMILES): COc1cc(Nc2nc(C)cc(-c3cnn4nc(OC)ccc34)n2)cc(C(F)(F)F)c1
- % of control [3]: 100%
- % of control [4]: 68%
- % of control [5]: 100%
- % of control [6]: 100%
- % of control [7]: 94%
- % of control [8]: 95%
- % of control [9]: 89%
- % of control [10]: 93%
- % of control [11]: 71%

Structure (SMILES): CN(C)C/C=C/C(=O)Nc1ccc(C(=O)N2CCCC(Nc3ncc(Cl)c(-c4c[nH]c5ccccc45)n3)C2)cc1 (stereo not given)
- % of control [12]: 100%

Structure (SMILES): CC[C@@H]1[C@H](F)C(=O)N[C@@H]1COc1nccc2cc(C(N)=O)c(OC)cc12 [ZIMLOVISERTIB]
- % of inhibition [13]: 21.3%
- % of inhibition [14]: 13.8%

Structure (SMILES): Cn1cc(-n2cnc3c(NCc4nc5cc(Cl)c(Cl)cc5[nH]4)nc(N4CCOCC4)nc32)cn1
- % of control [15]: -7.71%

Structure (SMILES): Cc1cc(F)c(C(=O)Nc2cccc(-c3nncn3C(C)C)n2)cc1-n1cnc(C2CC2)c1
- % of control [16]: 96%

Structure (SMILES): COCC(=O)NC/C=C/c1ccc2ncnc(Nc3ccc(Oc4ccc(C)nc4)c(C)c3)c2c1 [CP-724714]
- IC50 [17]: > 10 µM

Structure (SMILES): COc1cc(N(C)c2ccnc3ccc(C(F)(F)F)cc23)cc(OC)c1OC
- % binding [18]: 91%
- Kd [19]: 4.9 µM
- % binding [20]: 91%
- % binding [21]: 83%

Structure (SMILES): Nc1cnc(N2CCc3cc(S(=O)(=O)Nc4c(F)cc(Cl)cc4F)cc(N4CCCC4=O)c32)nc1 [TP-020n]
- % of control [22]: 100%
- % of control [23]: 100%

Structure (SMILES): C=CC(=O)Nc1cc(-n2c(=O)ccc3cnc4ccc(-c5ccc(NS(C)(=O)=O)cc5)cc4c32)ccc1C
- % of control ([24]; at 1 µM): 100%
- % of control ([24]; at 10 µM): 90%

Structure (SMILES): CN(C)CCOc1ccc(-c2nc(-c3ccncc3)c(-c3ccc4c(c3)CC/C4=N\O)[nH]2)cc1
- % of control [25]: 63%
- % of control [26]: 100%
- % of control [27]: 94%

Structure (SMILES): O[C@H]1CC[C@H](Nc2ncc3nc(Nc4c(F)cc(F)cc4F)n([C@H]4CCOC4)c3n2)CC1
- % of control [28]: 100%

Structure (SMILES): O=C(NOC[C@H](O)CO)c1ccc(F)c(F)c1Nc1ccc(I)cc1F
- % of control [29]: 100%
